Measurements taken from patent publication US9051387B2, “Inhibition of MyBP-C binding to myosin as a treatment for heart failure” (Wisconsin Alumni Research Foundation, priority 2012, dated 2015).
“Also recorded” adds a separate entry of the source.

How the values were obtained:
[1] = tested on: mouse skinned myocardium; test: Relative effects of peptides on force at submaximal pCa (scaled to force at pCa 4.5); type: cell-based; details: FIG. 7, mouse, 50 μM, intermediate pCa; untreated force ~35% of maximum
Method: (§1) Skinned ventricular myocardium was prepared according to the protocol described by Chen et al. (2010). In brief, beating hearts were excised in vivo from anesthetized WT mice of either sex (˜6 months old) and dissected in Ca^2+-Ringer's solution containing 120 mM NaCl, 19 mM NaHCO3, 5 mM KCl, 1.2 mM Na2HPO4, 1.2 mM MgSO4, 1 mM CaCl2, and 10 mM glucose, pH 7.4 at 22° C., pre-equilibrated with 95% O2/5% CO2. Basal levels of RLC phosphorylation were reduced to uniformly low levels (i.e., <10%) as described previously (Olsson et al., 2004; Stelzer et al., 2006) by perfusing hemisected hearts with Ca^2+-Ringer's solution containing 30 mM 2,3-butanedione monoxime (BDM) for 30 minutes at 22° C. before rapid freezing in liquid nitrogen for storage prior to experimental measurements. […]
(§2) The force generating properties of murine or porcine skinned myocardium were measured as a function of free [Ca^2+] in activating solutions containing salts, a Ca^2+ buffer, and MgATP (Olsson et al., 2004). Free Ca^2+, expressed as −log [Ca^2+]free, was varied between sub-threshold (pCa 7.0) and saturating (pCa 4.5) levels with respect to force development. Measurements of isometric force as a function of pCa yielded force-pCa relationships, from which was determined the Ca^2+ sensitivity of force defined as the pCa at which force was half-maximal. […]

[2] = tested on: murine skinned myocardium; test: Kinetics of force development (rate constant of force redevelopment, ktr); type: cell-based, mouse; details: 50 μM peptide, each pCa studied
Method: as §1, with “measurements. The dephosphorylation of RLC provides an appropriate background for assessment of the effects of the peptide, since RLC phosphorylation increases force production in heart muscle and speeds contraction and RLC phosphorylation is nearly nil in heart failure.” for “measurements.”
The kinetics of force development were assessed as a function of pCa by measuring the rate of force redevelopment at each pCa following a rapid slackening and re-stretch of the muscle during steady Ca^2+ activation (Olsson et al., 2004; Stelzer et al., 2006). […]

[3] = tested on: mouse skinned myocardium; test: Force-pCa relationship (Ca2+ sensitivity of force) in skinned myocardium; type: cell-based
Method: Skinned ventricular myocardium was prepared according to the protocol described by Chen et al. (2010). In brief, beating hearts were excised in vivo from anesthetized WT mice of either sex (˜6 months old) and dissected in Ca^2+-Ringer's solution containing 120 mM NaCl, 19 mM NaHCO3, 5 mM KCl, 1.2 mM Na2HPO4, 1.2 mM MgSO4, 1 mM CaCl2, and 10 mM glucose, pH 7.4 at 22° C., pre-equilibrated with 95% O2/5% CO2. Basal levels of RLC phosphorylation were reduced to uniformly low levels (i.e., <10%) as described previously (Olsson et al., 2004; Stelzer et al., 2006) by perfusing hemisected hearts with Ca^2+-Ringer's solution containing 30 mM 2,3-butanedione monoxime (BDM) for 30 minutes at 22° C. before rapid freezing in liquid nitrogen for storage prior to experimental measurements. The dephosphorylation of RLC provides an appropriate background for assessment of the effects of the peptide, since RLC phosphorylation increases force production in heart muscle and speeds contraction and RLC phosphorylation is nearly nil in heart failure.
On the day of an experiment, frozen ventricles were thawed and homogenized in ice-cold relaxing solution containing 100 mM KCl, 10 mM imidazole, 5 mM MgCl2, 2 mM EGTA, and 4 mMATP, pH 7.0 at 22° C. to yield multicellular preparations with dimensions of 600-900 μm×100-250 μm using a Polytron homogenizer. The cellular homogenates were then centrifuged and subsequently resuspended in ice-cold relaxing solution containing 250 μg/ml saponin and 1% Triton X-100 for 30 minutes at 4° C. […]
as §2

[4] = tested on: porcine skinned myocardium; test: as above; type: cell-based, pig
Method: Skinned myocardial preparations were attached between a force transducer (for measurements of force) and a displacement motor (to impose rapid changes in length for measurements of the kinetics of force development) while in relaxing solution (Olsson et al., 2004). The temperature was then adjusted to 22° C. for measurements of the contractile properties of myocardium in the presence and absence of peptide.
The force generating properties of murine or porcine skinned myocardium were measured as a function of free [Ca^2+] in activating solutions containing salts, a Ca^2+ buffer, and MgATP (Olsson et al., 2004). Free Ca^2+, expressed as −log [Ca^2+]free, was varied between sub-threshold (pCa 7.0) and saturating (pCa 4.5) levels with respect to force development. Measurements of isometric force as a function of pCa yielded force-pCa relationships, from which was determined the Ca^2+ sensitivity of force defined as the pCa at which force was half-maximal.
The force and kinetic data presented in the following section were obtained from each muscle preparation first during maximal activation at pCa 4.5, next during submaximal activation at a pCa>4.5, and once again during activation at pCa 4.5. The preparation was then bathed in relaxing solution containing peptide, after which the identical activation sequence was imposed. Finally, the peptide was washed out of the preparation by repeated washings in relaxing solution so that control measurements could again be done in the absence of peptide. This bracketing protocol ensured that the results in the presence of peptide were corrected for time-dependent rundown of the preparations during the experiment.
Measurements of Ca^2+ sensitivity of force were also performed using skinned myocardium from pig hearts, since these hearts are more similar to human hearts with respect to protein isoform expression than are mouse hearts. Specifically, the principal myosin isoform in porcine and human hearts is the much slower β-cardiac myosin, while the principal isoform in mouse hearts is the faster α-cardiac myosin. […] The slower β-cardiac isoform would be predicted to have a greater activating effect on the cardiac thin filament due to the longer residency time of the slower myosin on the thin filament.

For “FSSLLKKRDAFRRDAKLE (SEQ ID NO:47) [302A, 18-mer from cMyBP-C region 293-310 with S→A substitutions at positions 302 and 307]”, the “force at pCa 5.9 (scaled to force at pCa 4.5), fold of control” value [1] was ~2 × control, the “effect on rate constant of force development (ktr)” value [2] was “accelerated the rate of force development at each pCa studied; also recorded: increased at each pCa studied” and the “increase in Ca2+ sensitivity of force” value ([3]; mouse myocardium, 50 μM peptide, versus control) was 0.15 pCa units. For the same sequence, the “pCa50 following treatment with peptide” value ([3]; mouse myocardium, 50 μM peptide, control 5.70±0.02) was 5.85±0.02, the “effect on force-pCa relationship” value ([3]; mouse skinned myocardium, peptide 50 μM) was “shift of the force-pCa relationship to lower Ca^2+ concentrations; also recorded: shifted to lower Ca^2+ concentrations” and the “increase in Ca2+ sensitivity of force” value ([4]; porcine myocardium, 50 μM peptide, versus control) was 0.32 pCa units. The “pCa50 following treatment with peptide” value ([4]; porcine myocardium, 50 μM peptide, control 5.60) was 5.92, the “effect of washout of the peptide” value ([4]; porcine myocardium, after 50 μM peptide) was “reversed the effect” and the “effects on force development, porcine versus murine” value ([4]; skinned myocardium, FIG. 3) was “significantly greater in porcine than in murine skinned myocardium”.
